Test results: BindingDB's records for doi:10.1016/j.bmcl.2005.07.021 (Johnson & Johnson Pharmaceutical Research and Development, 2005)
pIC50: −log10 of the molar value.

Target: Glycogen phosphorylase, muscle form (Oryctolagus cuniculus) (UniProt P00489)
Assay: Inhibitory concentration against glycogen phosphorylase of rabbit muscle

Chain of Glycogen phosphorylase, muscle form (Oryctolagus cuniculus) (P00489 whole entry, looked up): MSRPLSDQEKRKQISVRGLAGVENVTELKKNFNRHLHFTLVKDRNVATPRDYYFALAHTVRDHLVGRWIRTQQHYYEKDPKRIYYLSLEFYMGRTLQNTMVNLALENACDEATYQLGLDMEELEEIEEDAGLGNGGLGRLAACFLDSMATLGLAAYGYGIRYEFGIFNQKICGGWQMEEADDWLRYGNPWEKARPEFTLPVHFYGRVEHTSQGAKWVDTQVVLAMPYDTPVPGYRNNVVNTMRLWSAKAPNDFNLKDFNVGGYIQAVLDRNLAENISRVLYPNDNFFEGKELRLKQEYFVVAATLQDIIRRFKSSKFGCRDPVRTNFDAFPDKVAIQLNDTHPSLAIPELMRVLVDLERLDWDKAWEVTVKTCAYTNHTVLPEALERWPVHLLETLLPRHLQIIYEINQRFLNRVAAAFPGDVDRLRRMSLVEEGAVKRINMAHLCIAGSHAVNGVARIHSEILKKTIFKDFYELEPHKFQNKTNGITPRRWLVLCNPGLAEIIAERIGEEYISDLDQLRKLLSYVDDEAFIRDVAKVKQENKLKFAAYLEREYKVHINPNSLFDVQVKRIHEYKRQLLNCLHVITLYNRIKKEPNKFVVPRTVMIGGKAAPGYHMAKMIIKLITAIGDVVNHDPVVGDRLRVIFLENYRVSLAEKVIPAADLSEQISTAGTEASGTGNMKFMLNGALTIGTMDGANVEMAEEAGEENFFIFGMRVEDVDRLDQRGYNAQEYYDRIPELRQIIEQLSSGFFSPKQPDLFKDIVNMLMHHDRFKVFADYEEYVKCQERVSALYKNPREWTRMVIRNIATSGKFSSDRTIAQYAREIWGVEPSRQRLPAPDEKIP

Structure (SMILES)	pIC50
Cn1c(=O)c(Nc2cccc(NC(=O)c3ccno3)c2)nc2ccccc21 [Isoxazole-5-carboxylic acid [3-(4-methyl-3-oxo-3,4-dihydro-quinoxalin-2-ylamino)-phenyl]-amide]	< 5.00
Cn1c(=O)c(Nc2ccc(C(=O)NCCc3cccs3)cc2)nc2ccccc21 [4-(4-Methyl-3-oxo-3,4-dihydro-quinoxalin-2-ylamino)-N-(2-thiophen-2-yl-ethyl)-benzamide]	< 5.00
CN(c1ccc(C(=O)Nc2ccon2)cc1)c1nc2ccccc2n(C)c1=O	< 5.00
CC(C)n1c(=O)c(Nc2ccc(C(=O)NCc3cccs3)cc2)nc2ccccc21 [4-(4-Isopropyl-3-oxo-3,4-dihydro-quinoxalin-2-ylamino)-N-thiophen-2-ylmethyl-benzamide]	< 5.00
Cn1c(=O)c(Nc2ccc(NC(=O)c3ccc[nH]3)cc2)nc2ccccc21 [1H-Pyrrole-2-carboxylic acid [4-(4-methyl-3-oxo-3,4-dihydro-quinoxalin-2-ylamino)-phenyl]-amide]	< 5.00

Now those with a higher pIC50, led by results:

pIC50	Structure (SMILES)
5.24	O=C(O)Cn1c(=O)c(Nc2ccc(C(=O)NCc3cccs3)cc2)nc2ccccc21 [(2-Oxo-3-{4-[(thiophen-2-ylmethyl)-carbamoyl]-phenylamino}-2H-quinoxalin-1-yl)-acetic acid]
5.30	Cn1c(=O)c(Nc2ccc(-c3ccoc3)cc2)nc2ccccc21 [3-(4-Furan-3-yl-phenylamino)-1-methyl-1H-quinoxalin-2-one]
5.60	O=c1[nH]c2ccccc2nc1Nc1ccccc1 [3-Phenylamino-1H-quinoxalin-2-one]
5.60	Cn1c(=O)c(Nc2ccc(-c3ccc[nH]3)cc2)nc2ccccc21 [1-Methyl-3-[4-(1H-pyrrol-2-yl)-phenylamino]-1H-quinoxalin-2-one]
5.60	Cn1c(=O)c(Nc2ccc(NC(=O)c3ccco3)cc2)nc2ccccc21 [Furan-2-carboxylic acid [4-(4-methyl-3-oxo-3,4-dihydro-quinoxalin-2-ylamino)-phenyl]-amide]
6.15	CN(C)CCn1c(=O)c(Nc2ccc(C(=O)NCc3cccs3)cc2)nc2ccccc21 [4-[4-(2-Dimethylamino-ethyl)-3-oxo-3,4-dihydro-quinoxalin-2-ylamino]-N-thiophen-2-ylmethyl-benzamide]
6.49	O=C(NCc1cccs1)c1ccc(Nc2nc3ccccc3n(CCO)c2=O)cc1 [4-[4-(2-Hydroxy-ethyl)-3-oxo-3,4-dihydro-quinoxalin-2-ylamino]-N-thiophen-2-ylmethyl-benzamide]
